Measurements taken from patent publication US20240217977A1, “DIAZEPANONE-FUSED PYRIMIDINE COMPOUNDS, COMPOSITIONS AND MEDICINAL APPLICATIONS THEREOF” (Blueprint Medicines Corporation, priority 2021, published 2024).

Legend:
Type in all cases: cell-based
A431 cells = assay: Cellular proliferation (Alamar Blue) assay, A431 cells; conditions: Homo sapiens, A-431, 72 hr incubation
In short: (§1)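 Ba/F3 lines stably expressing the mutant EGFR or HER2 (RPMI/10% FBS) and A431 cells (DMEM/10% FBS) were seeded and exposed for 72 h at 37° C to compound, final range 10-0.0005 μM in 3-fold dilutions. Proliferation was read by Alamar Blue fluorescence (540/590 nm) after 3 h.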

[1] = molecular target: EGFR (A767_dupASV) expressing Ba/F3 stable cell line (Homo sapiens, UniProt P00533, DUP767-769, cells depend on it); assay: Cellular proliferation (Alamar Blue) assay, EGFR (A767_dupASV) Ba/F3; conditions: 72 hr incubation, read-out: A767 IC50
Chain of EGFR (A767_dupASV) expressing Ba/F3 stable cell line (P00533 with tags, fused parts or gaps DUP767-769): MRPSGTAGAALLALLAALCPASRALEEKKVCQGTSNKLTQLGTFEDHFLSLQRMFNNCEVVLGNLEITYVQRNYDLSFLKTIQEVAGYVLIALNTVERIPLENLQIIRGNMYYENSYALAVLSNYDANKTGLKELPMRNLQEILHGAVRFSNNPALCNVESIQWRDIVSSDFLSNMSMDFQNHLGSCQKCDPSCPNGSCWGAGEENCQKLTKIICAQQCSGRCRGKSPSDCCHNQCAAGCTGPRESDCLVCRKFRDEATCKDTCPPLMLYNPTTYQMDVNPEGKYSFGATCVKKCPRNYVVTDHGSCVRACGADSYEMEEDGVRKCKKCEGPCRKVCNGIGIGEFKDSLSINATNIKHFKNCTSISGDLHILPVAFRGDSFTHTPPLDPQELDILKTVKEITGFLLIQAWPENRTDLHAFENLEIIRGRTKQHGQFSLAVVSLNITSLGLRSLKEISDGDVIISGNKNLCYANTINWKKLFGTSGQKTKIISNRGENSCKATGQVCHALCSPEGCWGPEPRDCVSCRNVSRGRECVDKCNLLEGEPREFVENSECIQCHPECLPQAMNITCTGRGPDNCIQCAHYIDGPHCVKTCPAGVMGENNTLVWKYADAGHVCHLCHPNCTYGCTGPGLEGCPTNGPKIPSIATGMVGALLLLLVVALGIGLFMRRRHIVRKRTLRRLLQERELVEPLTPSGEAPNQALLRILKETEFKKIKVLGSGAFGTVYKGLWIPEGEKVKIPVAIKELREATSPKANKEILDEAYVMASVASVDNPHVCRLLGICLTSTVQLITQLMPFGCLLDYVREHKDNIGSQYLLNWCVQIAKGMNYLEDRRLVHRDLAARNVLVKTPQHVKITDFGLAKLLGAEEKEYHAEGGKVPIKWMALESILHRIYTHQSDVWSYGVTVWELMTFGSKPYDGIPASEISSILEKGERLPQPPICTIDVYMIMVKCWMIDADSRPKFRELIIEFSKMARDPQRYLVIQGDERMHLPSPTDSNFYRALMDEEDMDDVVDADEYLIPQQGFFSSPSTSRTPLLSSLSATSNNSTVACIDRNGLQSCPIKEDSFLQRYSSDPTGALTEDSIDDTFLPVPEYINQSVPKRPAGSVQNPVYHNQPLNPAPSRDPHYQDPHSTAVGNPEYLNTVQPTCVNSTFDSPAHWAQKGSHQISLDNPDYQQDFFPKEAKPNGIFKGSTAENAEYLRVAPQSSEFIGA
In short: as §1

[2] = molecular target: HER2 (A775_G775insYVMA) expressing Ba/F3 stable cell line (Homo sapiens, UniProt P04626, DUP772-775, cells depend on it); assay: Cellular proliferation (Alamar Blue) assay, HER2 (A775_G775insYVMA) Ba/F3; conditions: 72 hr incubation, read-out: YVMA IC50
Chain of HER2 (A775_G775insYVMA) expressing Ba/F3 stable cell line (P04626 with tags, fused parts or gaps DUP772-775): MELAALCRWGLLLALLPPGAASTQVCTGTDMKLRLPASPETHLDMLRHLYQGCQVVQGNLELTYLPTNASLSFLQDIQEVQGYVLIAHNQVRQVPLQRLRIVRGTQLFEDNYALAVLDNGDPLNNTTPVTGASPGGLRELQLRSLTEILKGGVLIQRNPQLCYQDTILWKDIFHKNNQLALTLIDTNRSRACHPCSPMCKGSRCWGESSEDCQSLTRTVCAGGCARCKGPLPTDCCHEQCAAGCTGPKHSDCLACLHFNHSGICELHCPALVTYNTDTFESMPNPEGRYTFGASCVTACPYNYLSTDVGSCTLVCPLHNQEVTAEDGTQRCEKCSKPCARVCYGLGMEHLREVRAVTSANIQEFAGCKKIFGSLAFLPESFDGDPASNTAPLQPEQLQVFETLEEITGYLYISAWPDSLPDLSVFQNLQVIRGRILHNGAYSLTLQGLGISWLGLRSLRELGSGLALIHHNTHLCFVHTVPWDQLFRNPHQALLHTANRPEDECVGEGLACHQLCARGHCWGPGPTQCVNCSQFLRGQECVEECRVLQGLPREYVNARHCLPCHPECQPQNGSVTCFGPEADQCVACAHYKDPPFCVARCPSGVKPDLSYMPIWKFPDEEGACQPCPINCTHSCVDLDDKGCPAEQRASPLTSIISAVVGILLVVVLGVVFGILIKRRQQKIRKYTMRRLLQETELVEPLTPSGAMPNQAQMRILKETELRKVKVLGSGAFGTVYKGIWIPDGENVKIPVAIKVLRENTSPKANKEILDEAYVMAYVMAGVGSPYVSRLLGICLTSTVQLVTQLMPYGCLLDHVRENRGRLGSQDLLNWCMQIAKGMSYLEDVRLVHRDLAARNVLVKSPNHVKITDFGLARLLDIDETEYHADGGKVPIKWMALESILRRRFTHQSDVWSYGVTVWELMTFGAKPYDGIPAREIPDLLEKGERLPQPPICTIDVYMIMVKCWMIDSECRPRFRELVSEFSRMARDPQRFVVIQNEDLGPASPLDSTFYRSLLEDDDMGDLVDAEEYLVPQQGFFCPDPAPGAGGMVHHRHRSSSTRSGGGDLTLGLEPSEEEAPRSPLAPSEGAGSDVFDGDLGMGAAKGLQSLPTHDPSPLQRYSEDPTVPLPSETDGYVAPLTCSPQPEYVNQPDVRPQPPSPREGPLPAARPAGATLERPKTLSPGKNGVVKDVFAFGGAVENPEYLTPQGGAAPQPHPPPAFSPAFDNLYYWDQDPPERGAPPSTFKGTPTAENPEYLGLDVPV
Method: (§2) Example 2: Cellular Proliferation (Alamar Blue) Assays
(§3) • 1. EGFR(D770_N771insSVD) expressing Ba/F3 stable cell line • 2. EGFR (A767_dupASV) expressing Ba/F3 stable cell line • 3. A431 cells • 4. EGFR (H773insNPH) expressing Ba/F3 stable cell line • 5. HER2 (A775_G775insYVMA) expressing Ba/F3 stable cell line
(§4) • 1. Seed cells at 5000 for A431 and 15,000 cells for Ba/F3 in 100 μL/well in complete media (for A431: DMEM with 10% FBS and for Ba/F3 cells: RPMI with 10% FBS) in • 96-well tissue culture plate. Leave outer wells without cells for background measurements. Incubate at 37 degree Celsius in 5% C02 humidified incubator for 16-18 hours. • 2. Add 0.025 ml of 5× concentration compound dilution or DMSO control. Final compound concentration range is 10-0.0005 μM prepared in 3-fold serial dilutions. Incubate for 72 hr at 37 degree Celsius in 5% CO2 humidified incubator. • 3. Add 0.0125 ml Alamar Blue™ reagent to each well with multi-channel pipette and tap gently on each side of the plate to mix. Incubate for 3 hours at 37 degree Celsius in 5% CO2 humidified incubator. • 4. Read plates on fluorescence reader (Tecan Spark Control, Device: Spark, Serial #: 1801006040) at 540 nm excitation, 590 nm emission wavelength. • 5. Data analysis was performed using XLfit 5.5.0.5.

[3] = molecular target: EGFR (H773insNPH) expressing Ba/F3 stable cell line (Homo sapiens, UniProt P00533, DUP771-773, cells depend on it); assay: Cellular proliferation (Alamar Blue) assay, EGFR (H773insNPH) Ba/F3; conditions: 72 hr incubation, read-out: NPH IC50
Chain of EGFR (H773insNPH) expressing Ba/F3 stable cell line (P00533 with tags, fused parts or gaps DUP771-773): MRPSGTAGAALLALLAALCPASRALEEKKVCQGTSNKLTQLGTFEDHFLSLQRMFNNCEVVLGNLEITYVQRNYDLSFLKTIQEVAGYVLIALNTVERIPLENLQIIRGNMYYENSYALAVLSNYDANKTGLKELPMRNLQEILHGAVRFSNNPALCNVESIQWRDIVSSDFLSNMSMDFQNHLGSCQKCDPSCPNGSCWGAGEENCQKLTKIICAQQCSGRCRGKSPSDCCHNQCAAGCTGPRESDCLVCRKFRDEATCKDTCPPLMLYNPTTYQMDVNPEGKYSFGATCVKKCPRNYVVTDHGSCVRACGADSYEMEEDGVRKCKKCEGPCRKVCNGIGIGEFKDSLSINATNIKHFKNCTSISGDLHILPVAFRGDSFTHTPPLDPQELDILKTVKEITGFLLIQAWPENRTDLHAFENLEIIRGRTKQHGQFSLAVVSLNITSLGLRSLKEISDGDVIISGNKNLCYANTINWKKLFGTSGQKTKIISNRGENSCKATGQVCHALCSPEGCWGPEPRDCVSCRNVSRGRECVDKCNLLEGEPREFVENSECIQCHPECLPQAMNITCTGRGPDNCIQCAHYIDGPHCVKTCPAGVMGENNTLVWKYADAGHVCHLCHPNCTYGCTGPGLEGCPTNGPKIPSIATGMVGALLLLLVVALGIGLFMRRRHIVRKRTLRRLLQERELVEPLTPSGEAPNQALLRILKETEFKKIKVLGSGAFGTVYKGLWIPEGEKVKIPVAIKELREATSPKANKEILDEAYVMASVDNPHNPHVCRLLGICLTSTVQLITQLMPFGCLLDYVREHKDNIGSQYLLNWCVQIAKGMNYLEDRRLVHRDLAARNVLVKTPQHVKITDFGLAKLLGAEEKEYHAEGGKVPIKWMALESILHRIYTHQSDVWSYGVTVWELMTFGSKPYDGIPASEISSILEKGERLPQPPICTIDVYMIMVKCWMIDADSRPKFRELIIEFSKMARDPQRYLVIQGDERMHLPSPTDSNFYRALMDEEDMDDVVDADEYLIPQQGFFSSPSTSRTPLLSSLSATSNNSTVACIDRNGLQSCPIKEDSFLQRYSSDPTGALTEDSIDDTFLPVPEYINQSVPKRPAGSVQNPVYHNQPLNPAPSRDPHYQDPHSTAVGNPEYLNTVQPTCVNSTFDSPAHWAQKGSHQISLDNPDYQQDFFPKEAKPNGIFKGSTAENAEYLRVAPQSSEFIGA
Method: as §2, §3, §4

[4] = molecular target: EGFR(D770_N771insSVD) expressing Ba/F3 stable cell line (Homo sapiens, UniProt P00533, DUP768-770, cells depend on it); assay: Cellular proliferation (Alamar Blue) assay, EGFR(D770_N771insSVD) Ba/F3; conditions: 72 hr incubation, read-out: D770 IC50
Chain of EGFR(D770_N771insSVD) expressing Ba/F3 stable cell line (P00533 with tags, fused parts or gaps DUP768-770): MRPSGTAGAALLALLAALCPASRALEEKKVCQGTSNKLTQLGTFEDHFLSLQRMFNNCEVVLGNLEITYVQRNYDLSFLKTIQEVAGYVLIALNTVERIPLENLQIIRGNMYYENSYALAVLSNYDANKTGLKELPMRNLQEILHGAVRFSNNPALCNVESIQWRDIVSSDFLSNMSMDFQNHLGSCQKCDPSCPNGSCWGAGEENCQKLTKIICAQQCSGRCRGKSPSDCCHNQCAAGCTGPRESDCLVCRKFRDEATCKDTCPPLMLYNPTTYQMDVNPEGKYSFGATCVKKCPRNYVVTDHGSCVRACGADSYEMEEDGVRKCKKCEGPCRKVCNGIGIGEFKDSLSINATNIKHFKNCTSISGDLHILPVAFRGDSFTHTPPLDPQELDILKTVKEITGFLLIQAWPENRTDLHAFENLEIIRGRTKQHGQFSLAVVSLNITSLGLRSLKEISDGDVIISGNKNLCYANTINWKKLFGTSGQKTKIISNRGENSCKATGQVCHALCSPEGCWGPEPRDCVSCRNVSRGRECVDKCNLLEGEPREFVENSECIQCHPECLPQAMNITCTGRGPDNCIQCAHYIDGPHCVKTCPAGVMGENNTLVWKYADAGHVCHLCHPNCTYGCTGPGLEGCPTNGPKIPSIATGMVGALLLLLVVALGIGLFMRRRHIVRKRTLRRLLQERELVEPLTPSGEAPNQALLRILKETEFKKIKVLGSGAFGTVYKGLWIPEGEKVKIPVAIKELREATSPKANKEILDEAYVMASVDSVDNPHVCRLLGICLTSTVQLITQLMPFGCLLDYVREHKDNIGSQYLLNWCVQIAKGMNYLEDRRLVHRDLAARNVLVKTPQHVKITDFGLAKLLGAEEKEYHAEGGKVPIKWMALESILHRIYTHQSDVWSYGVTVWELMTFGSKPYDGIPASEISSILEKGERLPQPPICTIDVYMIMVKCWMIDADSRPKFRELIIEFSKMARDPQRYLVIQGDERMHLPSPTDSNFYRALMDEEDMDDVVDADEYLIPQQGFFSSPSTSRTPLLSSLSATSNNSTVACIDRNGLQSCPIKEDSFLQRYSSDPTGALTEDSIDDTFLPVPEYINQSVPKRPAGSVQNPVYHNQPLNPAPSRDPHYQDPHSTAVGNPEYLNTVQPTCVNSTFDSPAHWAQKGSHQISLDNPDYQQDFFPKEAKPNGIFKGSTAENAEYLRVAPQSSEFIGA
In short: as §1

IC50 (A431 cells) | GI50 [1] | GI50 [2] | GI50 [3] | GI50 [4] | Structure (SMILES)
64 nM | 55 nM | 31 nM | 152 nM | 45 nM | C=CC(=O)Nc1cccc(N2C(=O)N(Cc3ccccc3)CCc3cnc(Nc4ccc(F)cc4)nc32)c1 [Compound 18, N-(3-(7-benzyl-2-((4-fluorophenyl)amino)-8-oxo-5,6,7,8-tetrahydro-9H-pyrimido[4,5-d][1,3]diazepin-9-yl)phenyl)acrylamide]
> 10000 nM | 128 nM | 602 nM | 131 nM | 239 nM | Cn1cc(Nc2ncc3c(n2)N(c2cccc(NC(=O)/C=C/CF)c2)C(=O)N(c2ccccc2)CC3)c(Cl)n1 [Compound 33, (E)-N-(3-(2-((3-chloro-1-methyl-1H-pyrazol-4-yl)amino)-8-oxo-7-phenyl-5,6,7,8-tetrahydro-9H-pyrimido[4,5-d][1,3]diazepin-9-yl)phenyl)-4-fluorobut-2-enamide]
7 nM | 39 nM | 131 nM | 88 nM | 92 nM | C=CC(=O)Nc1cccc(N2C(=O)N(c3ccccc3)CCc3cnc(Nc4ccc(N5CCN(C)CC5)cc4OC)nc32)c1 [Compound 39, N-(3-(2-((2-methoxy-4-(4-methylpiperazin-1-yl)phenyl)amino)-8-oxo-7-phenyl-5,6,7,8-tetrahydro-9H-pyrimido[4,5-d][1,3]diazepin-9-yl)phenyl)acrylamide]
